Laboratory results from patent publication US9040725B2, “Benzocycloheptane and benzoxepine derivatives” (Janssen Pharmaceutica NV, priority 2008, dated 2015).
Counter-ions that a name gives are not always drawn. Like-named read-outs stand apart in the source and are kept apart here.

Tests used:
GHS1A-receptor = target: T1, GHS1A-receptor (Homo sapiens, UniProt Q92847); assay: Ghrelin-agonism in HEK293 cells (intracellular calcium, FLIPR); format: cell-based; details: HEK293 cells permanently transfected with GHS1A-receptor, calcium fluorescence (fluo-4 or Kit-3), EC50 in M, read-out: pEC50 (converted)
T1 construct: expressed in transfected cells; host or cells: HEK293
T1 sequence (Q92847 whole entry): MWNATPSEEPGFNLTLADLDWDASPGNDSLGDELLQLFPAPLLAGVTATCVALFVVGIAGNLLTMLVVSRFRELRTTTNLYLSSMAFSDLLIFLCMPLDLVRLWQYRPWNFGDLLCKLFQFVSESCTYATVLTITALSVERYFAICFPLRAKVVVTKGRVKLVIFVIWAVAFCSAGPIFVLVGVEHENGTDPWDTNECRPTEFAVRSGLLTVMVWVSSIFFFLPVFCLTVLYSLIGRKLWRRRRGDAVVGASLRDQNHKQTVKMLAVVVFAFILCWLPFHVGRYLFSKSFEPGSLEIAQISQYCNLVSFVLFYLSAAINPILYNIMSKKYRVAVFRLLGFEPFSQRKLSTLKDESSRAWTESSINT
Procedure: One day before the experiment, HEK293 cells, permanently transfected with the gene sequence for expression of the GHS1A-receptor, were seeded in poly-D-Lysine coated 96-well plates with clear bottom, and allowed to grow to […] of confluence on the next day.
Then, cells were incubated with the calcium-sensitive intracellular fluorescent probe fluo-4 or Kit-3 for 1 h at 37° C. Fluorescence representing free intracellular calcium in the cells was measured in a FLIPR-system (excitation at 488 nm, emission>520 nm). Test compounds were added to each well at the desired concentration and the fluorescence signal was simultaneously recorded in all wells. Release of intracellular calcium triggered by activation of the receptors upon addition of the test compound was measured as the fluorescence emitted from the complex of calcium and the fluorescent probe. The drug effect on fluorescence intensity was expressed relative to the maximal fluorescence intensity measured in cells exposed to the calcium-ionophore ionomycin.

NMRI-mice = assay: Acceleration of gastric emptying and small intestinal propulsion in NMRI-mice; format: in vivo; details: Mus musculus, sc, lowest active dose, subcutaneous, 30 min before phenol red test meal
Procedure: Male NMRI-mice weighing around 25 gram were fasted for 20 h and had free access to drinking water. Test compounds were administered to the animals by subcutaneous route 30 min before they were given a test meal by oral gavage. The test meal consisted of 0.3 ml of a chocolate nutridrink solution (1.0 kcal/ml) containing phenol red marker (5 mg/ml). Fifteen min after administration of the meal, the mice were sacrificed by CO2 gas inhalation. The phenol red content remaining in the stomach (extracted from the stomach with NaOH) was determined at 557 nm in a spectrophotometer and expressed as extinction units. Small intestinal propulsion was determined as the distance traveled by the phenol red marker through the intestine and expressed as a percentage of total small intestinal length (from the pylorus to the ileo-cecal junction).
The lowest dose that was active for each parameter was noted as the lowest active dose (LAD). Table 12 discloses LAD values.

[1] = active when >60% of animals had phenol red front beyond 85% of small intestinal length, read-out: LAD (mg/kg) Small intestinal propulsion
[2] = stomach content 15 min after meal, active when >60% of animals below 0.9 extinction units, read-out: LAD (mg/kg) Gastric emptying

Row | melting point | EC50 (GHS1A-receptor) | SMILES | minimal effective dose (NMRI-mice; [1]) | minimal effective dose (NMRI-mice; [2])
1 | 189.8 °C |  | CCN(CC)CCCC1(O)c2ccccc2CCCC1c1ccc(Cl)cc1 (racemic) (as salt: HCl) [Compound 46] |  | 
2 | 129 °C |  | CNCCCC1(O)c2ccccc2CCCC1c1ccccc1 (racemic) (as salt: oxalate) [Compound 19] |  | 
3 | 202 °C |  | OC1(CCCN2CCCC2)c2ccccc2CCCC1c1ccccc1 (racemic) (as salt: oxalate) [Compound 21] |  | 
4 | 137.4 °C |  | CNCCCC1(O)c2ccccc2CCCC1c1cccc(C)c1 (racemic) (as salt: oxalate) [Compound 22] |  | 
5 | 204.8 °C |  | Cc1cccc(C2CCCc3ccccc3C2(O)CCCN2CCOCC2)c1 (racemic) (as salt: oxalate) [Compound 25] |  | 
6 | 235.8 °C |  | CNCCCC1(O)c2ccccc2CCCC1c1ccc(C)cc1 (racemic) (as salt: oxalate) [Compound 27] |  | 
7 | 161.8 °C |  | Cc1ccc(C2CCCc3ccccc3C2(O)CCCN(C)C)cc1 (racemic) (as salt: oxalate) [Compound 29] |  | 
8 | 144.9 °C |  | COCCN(C)CCCC1(O)c2ccccc2CCCC1c1ccc(C)cc1 (racemic) (as salt: oxalate) [Compound 30] |  | 
9 | 158.6 °C |  | CCN(CC)CCCC1(O)c2ccccc2CCCC1c1ccc(C)cc1 (racemic) (as salt: oxalate) [Compound 31] |  | 
10 | 219 °C |  | Cc1ccc(C2CCCc3ccccc3C2(O)CCCN2CCN(C)CC2)cc1 (racemic) (as salt: oxalate) [Compound 33] |  | 
11 | 191.1 °C |  | COCCN(C)CCCC1(O)c2ccccc2CCCC1c1ccc(O)cc1 (racemic) (as salt: oxalate) [Compound 37] |  | 
12 |  | 126 nM | CNCCCC1(O)c2ccccc2CCCC1c1ccc(Cl)cc1 (racemic) [Compound 43] | > 10 mg/kg | > 10 mg/kg
13 |  | 200 nM | CCN(CC)CCCC1(O)c2ccccc2CCCC1c1ccc(Cl)cc1 (racemic) [Compound 46] | 10 mg/kg | 10 mg/kg
14 |  | 31.6 nM | OC1(CCCN2CCCC2)c2ccccc2CCCC1c1ccc(Cl)cc1 (racemic) [Compound 48] | > 10 mg/kg | > 10 mg/kg
15 |  | 12.6 nM | CN(C)CCCC1(O)c2ccccc2CCCC1c1ccc(F)cc1 (racemic) [Compound 52] | > 10 mg/kg | > 10 mg/kg
16 |  | 20 nM | CCN(CC)CCCC1(O)c2ccccc2CCCC1c1ccc(F)cc1 (racemic) [Compound 53] | > 10 mg/kg | > 10 mg/kg
17 |  | 63.1 nM | COCCN(C)CCCC1(O)c2ccccc2CCCC1c1ccc(F)cc1 (racemic) [Compound 54] | > 40 mg/kg | > 40 mg/kg
18 |  | 25.1 nM | CN(C)CCCC1(O)c2ccccc2CCCC1c1ccc(F)cc1F (racemic) [Compound 56] | > 10 mg/kg | 10 mg/kg
19 |  | 31.6 nM | CCN(CC)CCCC1(O)c2ccccc2CCCC1c1ccc(F)cc1F (racemic) [Compound 57] | 10 mg/kg | 10 mg/kg
20 |  | 126 nM | COCCN(C)CCCC1(O)c2ccccc2CCCC1c1ccc(F)cc1F (racemic) [Compound 58] | > 10 mg/kg | > 10 mg/kg
21 |  | 3980 nM | CC(=O)N1CCN(CCCC2(O)c3ccccc3CCCC2c2ccc(F)cc2F)CC1 (racemic) [Compound 60] | 10 mg/kg | > 10 mg/kg
22 |  | 251 nM | COc1ccc(C2CCCc3ccccc3C2(O)CCCN(C)C)cc1 (racemic) [Compound 66] | 10 mg/kg | > 10 mg/kg
23 |  | 158 nM | CCN(CC)CCCC1(O)c2ccccc2CCCC1c1ccc(OC)cc1 (racemic) [Compound 67] | > 10 mg/kg | > 10 mg/kg

Row | melting point | EC50 (GHS1A-receptor) | SMILES | minimal effective dose (NMRI-mice; [1]) | minimal effective dose (NMRI-mice; [2])
24 |  | 10 nM | COc1cc(C2CCCc3ccccc3C2(O)CCCN(C)C)ccc1Cl (racemic) [Compound 72] | > 10 mg/kg | > 10 mg/kg
25 |  | 316 nM | COc1cc(C2CCCc3ccccc3C2(O)CCCN2CCC(O)C2)ccc1Cl (racemic) [Compound 73] | 10 mg/kg | > 10 mg/kg
26 |  | 5.01 nM | CCN(CC)CCCC1(O)c2ccccc2CCCC1c1ccc(Cl)c(OC)c1 (racemic) [Compound 74] | > 40 mg/kg | > 40 mg/kg
27 |  | 398 nM | CCN(CC)CCCC1(O)c2ccccc2CCCC1c1ccc(OC)c(OC)c1 (racemic) [Compound 78] | > 10 mg/kg | > 10 mg/kg
28 |  | 50.1 nM | CN(C)CCCC1(O)c2ccccc2CCCC1c1cncc(Cl)c1 (racemic) [Compound 81] | > 10 mg/kg | > 10 mg/kg
29 |  | 251 nM | CC(C)NCCCC1(O)c2ccccc2CCCC1c1cncc(Cl)c1 (racemic) [Compound 82] | > 10 mg/kg | > 10 mg/kg
30 |  | 631 nM | COc1cncc(C2CCCc3ccccc3C2(O)CCCN(C)C)c1 (racemic) [Compound 83] | > 10 mg/kg | > 10 mg/kg
31 |  | 63.1 nM | CN(C)CCCC1(O)c2ccccc2CCCC1c1ccc2c(c1)OCO2 (racemic) [Compound 88] | > 10 mg/kg | > 10 mg/kg
32 |  | 39.8 nM | CCN(CC)CCCC1(O)c2ccccc2CCCC1c1ccc2c(c1)OCO2 (racemic) [Compound 89] | > 10 mg/kg | > 10 mg/kg
33 |  | 63.1 nM | Cc1ccc(C2CCOc3ccccc3C2(O)CCCN(C)C)cc1 (racemic) [Compound 92] | > 10 mg/kg | > 10 mg/kg
34 |  | 63.1 nM | CCN(CC)CCCC1(O)c2ccccc2OCCC1c1ccc(C)cc1 (racemic) [Compound 93] | 10 mg/kg | > 10 mg/kg
35 |  | 31.6 nM | CN(C)CCCC1(O)c2ccccc2OCCC1c1ccc(Cl)cc1 (racemic) [Compound 94] | 2.5 mg/kg | 10 mg/kg
36 |  | 50.1 nM | CN(C)CCCC1(O)c2ccccc2OCCC1c1ccc(F)c(F)c1 (racemic) [Compound 95] | > 10 mg/kg | > 10 mg/kg
37 |  | 2000 nM | COc1ccccc1C1CCOc2ccccc2C1(O)CCCN(C)C (racemic) [Compound 96] | > 10 mg/kg | > 10 mg/kg
38 |  | 25.1 nM | COc1cc(C2CCOc3ccccc3C2(O)CCCN(C)C)ccc1Cl (racemic) [Compound 97] | 2.5 mg/kg | 2.5 mg/kg
39 |  | 10 nM | CCN(CC)CCCC1(O)c2ccccc2OCCC1c1ccc(Cl)c(OC)c1 (racemic) [Compound 98] | 10 mg/kg | 10 mg/kg
40 |  | 794 nM | Cc1ccc(C2CCOc3ccccc3C2(O)CCCN(C)C)cn1 (racemic) [Compound 99] | > 10 mg/kg | 10 mg/kg
41 |  | 7940 nM | COc1ccc(C2CCOc3ccccc3C2(O)CCCN(C)C)cn1 (racemic) [Compound 102] | > 10 mg/kg | > 10 mg/kg
42 |  | 63.1 nM | CN(C)CCCC1(O)c2ccccc2CCCC1c1ccccc1 (racemic) [Compound 106] | 10 mg/kg | 10 mg/kg
43 |  | 251 nM | COCCN(C)CCC[C@@]1(O)c2ccccc2CCC[C@@H]1c1ccc(Cl)cc1 (relative stereo) [Compound 13] | > 10 mg/kg | 10 mg/kg
44 |  | 15.8 nM | CN(C)CCCC1(O)c2ccccc2CCCC1c1ccccc1 (single isomer, unassigned) [Compound 105] | > 10 mg/kg | 10 mg/kg
45 |  | 398 nM | CNCCC[C@@]1(O)c2ccccc2OCC[C@@H]1c1ccc(C)cc1 [Compound 11] | > 10 mg/kg | > 10 mg/kg
46 |  | 251 nM | Cc1ccc([C@H]2CCCc3ccccc3[C@]2(O)CCCN(C)C)cn1 [Compound 12] | > 10 mg/kg | > 10 mg/kg

Row | SMILES | melting point | EC50 (GHS1A-receptor) | minimal effective dose (NMRI-mice; [1]) | minimal effective dose (NMRI-mice; [2])
47 | COc1cccc([C@H]2CCCc3ccccc3[C@]2(O)CCCN(C)C)c1 (racemic) (as salt: oxalate) [Compound 14, (±)cis-5-(3-Dimethylamino-propyl)-6-(3-methoxy-phenyl)-6,7,8,9-tetrahydro-5H-benzocyclohepten-5-ol oxalate] | 108 °C |  |  | 
